Measurements reported in paper PMC8512817 (Molecules, 2021).
Where “and” joins values, the source holds several entries; their conditions need not be identical. Equal entries are not always repeated. Where two headings read alike, the source gives them in different places. Peptide text beside a SMILES is read from it.

Experiments:
Test in all cases: biochemical
DLG1-1 PDZ = DLG1-1 PDZ (Homo sapiens, UniProt Q12959)
Source text: (§1) Starting with the HPV18 E6 C-terminal sequence, we designed a number of peptides to test specific peptide positions, including HPV16 E6, HPV18 E6, SRETTV, SRETDV, RRETTV, and RRETDV, where underlined residues differ from HPV18 E6. As a control, we also tested human SNX27, SHANK1, and GIPC PDZ targets previously studied, including GIRK3 (sequence: ESESKV), BPIX (WDETNL), GAIP (QSSSEA), TYRP1 (PNQSVV), and B1AR (ASESKV), as well as previously identified mbSHANK targets, including A9V7Z4 (EDETAL), A9UP44 (QSESRL), and A9UXE1 (QDETAL).
(§2) Figure 6 The binding isotherms from competition fluorescence polarization experiments of A9UPE9 (left, as labeled), and DLG1-1 (right, as labeled) PDZ domains are shown with the HPV18 E6 variant peptides SRETTV and SRETDV. The average values are shown, with error bars representing standard deviation from at least triplicate experiments.
(§3) Cells were lysed on ice using sonication.
(§4) Binding curves were visualized using Kaleidagraph.

A9UPE9 PDZ [1] = target: T1, A9UPE9 PDZ (Monosiga brevicollis, UniProt A9UPE9)
Source text: as §1, §2, §3, §4

A9UPE9 PDZ [2] = target: T1, A9UPE9 PDZ; details: fluorescence polarization
Protocol: Expression and purification of all human and M. brevicollis PDZ domains followed a similar protocol, as previously reported for mbSHANK1 PDZ [48, 54]. Briefly, N-terminal His-tagged versions of A9UPE9 PDZ (residues 7–98) and DLG1-1 PDZ (residues 220–317) with cleavable TEV sites were inserted into the pET28a+ vector by gene synthesis (GenScript) and expressed in Escherichia coli BL21 (DE3) cells. Cells were lysed on ice using sonication. The lysis buffer used was 50 mM Tris pH 8.5, 200 mM NaCl, 10 mM CaCl2, 10 mM MgCl2, 20% (w/v) glycerol, 50 mM imidazole pH 8.5, 0.25 mM TCEP, DNAse, and protease inhibitor cocktail. Immobilized metal-affinity chromatography, 5 mL HisTrap (GE Healthcare, now Cytiva), was used to purify proteins from the clarified supernatant. The wash buffer used was 25 mM imidazole pH 8.5, 25 mM Tris pH 8.5, 250 mM NaCl, 10% (v/v) glycerol, and 0.25 mM TCEP, and the elution buffer was 400 mM imidazole pH 8.5, 25 mM Tris pH 8.5, 50 mM NaCl, 10% (v/v) glycerol, and 0.25 mM TCEP. Except for the protein used in binding experiments, the protein was then dialyzed in dialysis/gel filtration buffer (25 mM Tris pH 8.5, 150 mM NaCl, 10% (w/v) glycerol, 0.5 mM TCEP) and incubated at 4 °C overnight with TEV protease to cleave off the His-tag. The cleaved protein was then purified using a second nickel column with the wash and elution buffers described above. All proteins were further purified on a Superdex S75 column (Cytiva), using gel filtration buffer. Proteins were concentrated using Amicon centrifugal concentrators (3 MWCO). Concentrated proteins used in fluorescence polarization assays were flash frozen in liquid nitrogen for storage at −80 °C. The extinction coefficient values used for quantification of the proteins at A280 were 1490 cm^−1·M^−1 (A9UPE9) and 4470 cm^−1·M^−1 (DLG1-1).
Fluorescence polarization assays were conducted, as previously described [12, 45, 46, 48, 54, 60]. […] Competition experiments were performed in at least triplicate, and binding affinities were determined using SOLVER, as previously described [12, 45, 46, 48, 54, 60].

[3] = KI Values (μM) A9UPE9 PDZ, Table 3, competition FP, reporter 30 nM F*-HPV18 E6, 10.5 μM protein, at least triplicate, fitted with SOLVER

T1 sequence (A9UPE9 7-98): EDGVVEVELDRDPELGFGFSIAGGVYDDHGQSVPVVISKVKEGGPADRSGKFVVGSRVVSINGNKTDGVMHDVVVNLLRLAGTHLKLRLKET
DLG1-1 PDZ, sequence (Q12959 220-317): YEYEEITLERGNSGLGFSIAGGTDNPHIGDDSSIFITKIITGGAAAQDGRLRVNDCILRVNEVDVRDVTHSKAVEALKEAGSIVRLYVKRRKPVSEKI

Compound	Ki (A9UPE9 PDZ [1]; [3]) [µM]	other results
CC(C)C[C@H](NC(=O)[C@H](CC(N)=O)NC(=O)[C@@H](NC(=O)[C@H](CCC(=O)O)NC(=O)[C@H](CC(=O)O)NC(=O)[C@@H](N)Cc1c[nH]c2ccccc12)[C@@H](C)O)C(=O)O [BPIX] (H-WDETNL-OH)	330 ± 160	Ki (DLG1-1 PDZ): 460 ± 140 µM
CC[C@H](C)[C@H](NC(=O)[C@@H](N)C(C)C)C(=O)N[C@@H](C)C(=O)N[C@H](C(=O)N[C@@H](CCC(=O)O)C(=O)N[C@H](C(=O)O)C(C)C)[C@@H](C)O [DLL1/DLL4] (H-VIATEV-OH)	–	Ki (A9UPE9 PDZ [1]): 240 ± 40 µM
CC(C)C[C@H](NC(=O)[C@H](CCCNC(=N)N)NC(=S)Nc1ccc2c(c1)C(=O)OC21c2ccc(O)cc2Oc2cc(O)ccc21)C(=O)N[C@@H](CCC(N)=O)C(=O)N[C@@H](CCCNC(=N)N)C(=O)N[C@@H](CCCNC(=N)N)C(=O)N[C@@H](CCCNC(=N)N)C(=O)N[C@@H](CCC(=O)O)C(=O)N[C@H](C(=O)N[C@@H](CCC(N)=O)C(=O)N[C@H](C(=O)O)C(C)C)[C@@H](C)O [F*-HPV18 E6]	–	Kd (A9UPE9 PDZ [2]; 30 nM reporter peptide, triplicate experiments): 6.9 µM and < 10 µM
CC(C)C[C@H](NC(=O)[C@H](CCC(N)=O)NC(=O)[C@@H](NC(=O)[C@H](CCC(=O)O)NC(=O)[C@H](CCCNC(=N)N)NC(=O)[C@H](CCCNC(=N)N)NC(=O)[C@@H](NC(=O)[C@H](CCCNC(=N)N)NC(=O)[C@H](CO)NC(=O)[C@H](CO)NC(=S)Nc1ccc2c(c1)C(=O)OC21c2ccc(O)cc2Oc2cc(O)ccc21)[C@@H](C)O)[C@@H](C)O)C(=O)O [FITC-SSRTRRETQL]	–	Kd (A9UPE9 PDZ [2]; duplicate experiments): 19.5 ± 1.8 µM
C[C@H](NC(=O)[C@H](CCC(=O)O)NC(=O)[C@H](CO)NC(=O)[C@H](CO)NC(=O)[C@H](CO)NC(=O)[C@@H](N)CCC(N)=O)C(=O)O [GAIP] (H-QSSSEA-OH)	> 1000	–
CC(C)[C@H](NC(=O)[C@H](CCCCN)NC(=O)[C@H](CO)NC(=O)[C@H](CCC(=O)O)NC(=O)[C@H](CO)NC(=O)[C@@H](N)CCC(=O)O)C(=O)O [GIRK3] (H-ESESKV-OH)	> 1000	–
CC(C)C[C@H](NC(=O)[C@H](CCC(N)=O)NC(=O)[C@@H](NC(=O)[C@H](CCC(=O)O)NC(=O)[C@H](CCCNC(=N)N)NC(=O)[C@H](CCCNC(=N)N)NC(=O)[C@@H](NC(=O)[C@H](CCCNC(=N)N)NC(=O)[C@H](CO)NC(=O)[C@@H](N)CO)[C@@H](C)O)[C@@H](C)O)C(=O)O [HPV16 E6]	66 ± 24	–
CC(C)C[C@H](NC(=O)[C@@H](N)CCCNC(=N)N)C(=O)N[C@@H](CCC(N)=O)C(=O)N[C@@H](CCCNC(=N)N)C(=O)N[C@@H](CCCNC(=N)N)C(=O)N[C@@H](CCCNC(=N)N)C(=O)N[C@@H](CCC(=O)O)C(=O)N[C@H](C(=O)N[C@@H](CCC(N)=O)C(=O)N[C@H](C(=O)O)C(C)C)[C@@H](C)O [HPV18 E6]	16 ± 1	–
CC(C)C[C@H](NC(=O)[C@H](CCCNC(=N)N)NC(=O)[C@H](CO)NC(=O)[C@H](CCC(=O)O)NC(=O)[C@H](CO)NC(=O)[C@@H](N)CCC(N)=O)C(=O)O [Peptide A9UP44] (H-QSESRL-OH)	64 ± 35	–
CC(C)[C@H](NC(=O)[C@H](CO)NC(=O)[C@H](CO)NC(=O)[C@H](CCC(=O)O)NC(=O)[C@H](CO)NC(=O)CN)C(=O)O [Peptide A9UWP5_MONVE] (H-GSESSV-OH)	–	Ki (A9UPE9 PDZ [1]): 490 ± 110 µM
CC(C)C[C@H](NC(=O)[C@H](C)NC(=O)[C@@H](NC(=O)[C@H](CCC(=O)O)NC(=O)[C@H](CC(=O)O)NC(=O)[C@@H](N)CCC(N)=O)[C@@H](C)O)C(=O)O [Peptide A9UXE1] (H-QDETAL-OH)	460 ± 210	–
CC(C)[C@H](NC(=O)[C@@H](NC(=O)[C@H](CO)NC(=O)[C@H](CCC(=O)O)NC(=O)[C@H](CCCNC(=N)N)NC(=O)[C@@H](N)Cc1c[nH]cn1)[C@@H](C)O)C(=O)O [Peptide A9V6G5_MONBE] (H-HRESTV-OH)	–	Ki (A9UPE9 PDZ [1]): < 100 µM and 97 µM
CC(C)C[C@H](NC(=O)[C@H](C)NC(=O)[C@@H](NC(=O)[C@H](CCC(=O)O)NC(=O)[C@H](CC(=O)O)NC(=O)[C@@H](N)CCC(=O)O)[C@@H](C)O)C(=O)O [Peptide A9V7Z4] (H-EDETAL-OH)	580 ± 160	Ki (DLG1-1 PDZ): 460 ± 190 µM
CC(C)[C@H](NC(=O)[C@H](CCCCN)NC(=O)[C@H](CO)NC(=O)[C@H](CCC(=O)O)NC(=O)[C@H](CO)NC(=O)[C@H](C)N)C(=O)O [Peptide B1AR] (H-ASESKV-OH)	95 ± 30	–
CC(C)[C@H](NC(=O)[C@@H](NC(=O)[C@H](CO)NC(=O)[C@H](CCC(N)=O)NC(=O)[C@H](CC(N)=O)NC(=O)[C@@H]1CCCN1)C(C)C)C(=O)O [TYRP1] (H-PNQSVV-OH)	97 ± 24	–
